A short description of data set [1]: Salt water (synthetic-seawater) leaching test: 14C-labelled ITA remaining in the marine paint film. The data set is classed as physicochemical. The procedure:
The efficacy of the 3-isothiazolone/carbon-based adsorbent compositions of the present invention in a paint film was determined by a salt water (synthetic-seawater) leaching evaluation. An appropriate amount of 4,5-dichloro-2-n-octyl-3-isothiazolone (ITA), together with carbon-based adsorbent (C-1, C-2, C-3):
was added to 10 g of a marine antifouling paint formulation (2 different paint types, P-1 and P-2, see below) in a milling jar to provide a final 3-isothiazolone concentration of 2% based on total combined weight of the 3-isothiazolone/carbon-based adsorbent/paint formulation mixture. Paint films were then drawn on silanized microslides to a thickness of 0.076 mm (0.003 inch) for the rosin-based paint formulation (P-1) and to a thickness of 0.178 mm (0.007 inch) for the polishing type marine antifouling paint (P-2). The paint films were dried for 2 days and then the microslides were placed in a synthetic-seawater fish tank for 1 month. The synthetic-seawater was periodically circulated through a filter cartridge containing activated carbon and Celex™ 20 chelating agent (to remove 3-isothiazolone and copper ions). At various times the paint slides were removed and analyzed. The amount of 4,5-dichloro-2-n-octyl-3-isothiazolone remaining in the paint film after exposure to synthetic-seawater was determined by radioactive labeling (^14C-labeled 4,5-dichloro-2-n-octyl-3-isothiazolone).
The salt water leaching test and radioactive labeling measurements were conducted as follows: a small amount of ^14C-4,5-dichloro-2-n-octyl-3-isothiazolone was incorporated with ^12C-4,5-dichloro-2-n-octyl-3-isothiazolone into paint and the radioactivity of trace ^14C-molecules was measured by a Phosphorimager SI spectrometer (manufactured by Molecular Dynamics Co.); a ratio of 4×10^−5 for ^14C-4,5-dichloro-2-n-octyl-3-isothiazolone to every gram of ^12C-4,5-dichloro-2-n-octyl-3-isothiazolone was used.
The prepared slides were placed in synthetic-seawater prepared as follows: the following ingredients (20 liters deionized water, 1350 g NaCl, 225 g MgCl2.6H2O, and 321.6 g Na2B4O7.10H2O in 6 liters deionized water) were combined and adjusted to a pH of 8.2 with 1.0 M HCl solution, after which the total volume was made up to 30 liters with additional deionized water.
The solid compositions were then evaluated using (1) the salt water leaching test as described in Example 3 and the relative release test (5-day) described in Example 2. A summary of the performance of the three inorganic carriers (diatomaceous earth, aluminosilicate and magnesium silicate) relative to the carbon-based adsorbent (activated carbon) composition of the present invention is presented in Table 4.

Data set [2] in a line: Relative release test: 3-isothiazolone released from the solid composition into water with 0.3% sodium diethylhexylsulfosuccinate (HPLC). The data set is classed as physicochemical. The settings on record: no paint. The procedure:
The amount of 3-isothiazolone compound released from each controlled release composition was determined according to the following general procedure. A weighed amount of controlled release composition (0.014 g, prepared as described in Example 1) was placed in a 250 mL sample jar. To the jar was then added 200 mL of water containing 0.3% of sodium diethylhexylsulfosuccinate. The solution was then gently stirred to ensure no foam was formed. Aliquots (0.5 mL) were taken at 5 and 24 hours and transferred to a microcentrifuge tube. Each aliquot was then centrifuged at 14,000 rpm for 3 minutes. The supernatant was then removed and analyzed by HPLC (high pressure liquid chromatography) for the amount of the 3-isothiazolone compound. The microcentrifuge tube was then washed with 0.5 mL of water containing 0.3% of sodium diethylhexylsulfosuccinate and the wash liquid added to the sample jar. This ensured that none of the particles removed during sampling was lost and that the volume in the jar remained constant.
The solid compositions were then evaluated using (1) the salt water leaching test as described in Example 3 and the relative release test (5-day) described in Example 2. […]

Where [3] appears, read: paint P-1 (rosin-based), 2% ITA, synthetic seawater.
Setting [4] is: paint P-2 (polishing type), 2% ITA, synthetic seawater.

SMILES strings stand for the structures. Marks after values point to notes of the source that are not given here.

In the case of `CCCCCCCCn1sc(Cl)c(Cl)c1=O` [None, 4,5-dichloro-2-n-octyl-3-isothiazolone], in data set [1] (setting [3]), the “% ITA Retained in Paint Film, 0 Days” value worked out at 100%; the “% ITA Retained in Paint Film, 7 Days” value came out at 82%; the “% ITA Retained in Paint Film, 30 Days” value stood at 70%. Besides, the “% ITA Retained in Paint Film, 14 Days (interpolated)” value in data set [1] (paint P-1 (rosin-based), 2% ITA, synthetic seawater, 14 days, values in are interpolated) is reported as “(78) %”. Moreover, in data set [1] (paint P-1, carrier loaded with 30% ITA, 28 days in synthetic seawater), the “Salt Water Leaching Test (28 Days) (% Retained in Paint Film)” value amounted to 64%. Also, in data set [1] (setting [4]), the “% ITA Retained in Paint Film, 0 Days” value is 100%; the “% ITA Retained in Paint Film, 7 Days” value is recorded as 31-44* %; the “% ITA Retained in Paint Film, 30 Days” value stood at 13%. In addition, the “% ITA Retained in Paint Film, 21 Days” value in data set [1] (paint P-2 (polishing type), 2% ITA, synthetic seawater, 21 days) was 18%. Also, the “% 4,5-dichloro-2-n-octyl-3-isothiazolone retained (5-day surfactant solution)” value in data set [2] (5-day release test, retention as stated in the text) was 0%. In addition, the “5 Day % Released” value in data set [2] (carrier loaded with 30% ITA, 5-day relative release test in surfactant solution) came to 100%.

For the origin of these results see patent US6676954B2, “Controlled release compositions” (Rohm and Haas Company, priority 2000, dated 2004).
